One series deals with Male Balb/c mice. As to the method:
Male Balb/c mice were then injected with 0.1 ml of a compound solution via the tail vein. At least 3 mice were injected per dose level Saline only was used as a negative control. For a positive control, cyclophosphamide (cycloPP) was administered at a dose of 30 mg/kg. In the experimental group, the injections were repeated once per day for four days. In the positive control group, the sample was administered only once, on day three. On day 5, several microliters of blood were withdrawn from each subject and smeared on a glass slide. Cells were fixed in absolute methanol and stored in a slide rack.
For analysis, cells were stained with acridine orange and visualized under a fluorescence microscope by counting: (i) the number of reticulocytes per 5000 erythrocytes; and (ii) the number of micronucleated reticulocytes per 1000 reticulocytes. Reticulocytes were distinguished by their red fluorescence due to the presence of RNA. Micronuclei were distinguished by their green fluorescence due to the presence of DNA. The percentage of reticulocytes (%PCE) was then calculated. A decrease in the frequency of erythrocytes, represented by an increase in the percentage of reticulocytes, is an indication of bone marrow toxicity. The percentage of reticulocytes with micronuclei (%PCE with MN) was also calculated. An increase in %PCE with MN is a measure of elastogenicity.
After initial results were determined, the experiment was repeated using increased dose levels, until: (i) Micronucleus formation was seen; or (ii). Bone marrow toxicity was observed; or (iii) The lethal dose was reached; or (iv) A dose of 5 g/kg was administered.

The next series has as its system R17. Briefly: r-17 bacteriophage assay: R17 treated with compound and UVA, remaining titer by plaque count on Hfr 3000 bacteria. Format: cell-based. How it is done: In the r-17 assay, the bacteriophage was placed in a solution with each compound tested and was then irradiated. The ability of the phage to subsequently infect bacteria and inhibit their growth was measured. The bacteriophage was selected for its relatively accessible nucleic acid such that the culture growth inhibition would accurately reflect nucleic acid damage by the test compounds. The bacteriophage assay for nucleic acid binding to test compounds offers a safe and inexpensive procedure to identify compounds likely to display efficient pathogen inactivation. Previous experiments support that the r-17 assay accurately measures HIV-1 sensitivity to similar compounds. […] Modified Eagles Medium (DMEM) to a final phage concentration of 10^9/mL. An aliquot (0.5 mL) was transferred to a 1.5 mL snap-top polyethylene tube. […] Louis, MO). The tubes were placed in a light device as described in EXAMPLE 1 and irradiated for between 1 and 10 minutes. […] To make the dilutions. a 0.100 mL aliquot of the irradiated solution of phage and test compound was added to the first dilution tube of 0.4 mL of media then 0.020 mL of this solution was added to the second tube of 0.5 mL medium (1:25). […] After the top agar hardened, the plates were incubated at 37 °C overnight. The plaque forming units were then counted the following morning and the titer of the phage remaining after phototreatment was calculated based on the dilution factors. The following controls were run: the "phage only" in which phage was not treated with test compound and not irradiated (listed as "starting titer" in the tables below); the "UV only" in which the phage was irradiated in the absence of test compound; and the "dark" control in which the phage/test compound solution was not irradiated before it was diluted and plated. Compounds described herein were also tested at a constant concentration for varying doses of UV light. […] The compound tested was added at the desired concentration and the samples were vortexed. […] Between each 1.0 J/cm^2 intervals, 100µL was removed from each sample and placed in the first corresponding dilution tube, then five sequential dilutions were performed for each compound tested, at all 3 irradiation doses, as described above in this example. […] The contents of each tube was poured into its own LB plate and the plates were incubated overnight at 37 °C. Plaques were counted by visual inspection the following morning.

Another series relates to HIV-1. As to conditions: 1 Minute Irradiation.
Series [1] is described as follows: HPLC retention time as rough estimate of hydrophobicity. In kind it is physicochemical. The note with it: C-18 reversed phase column, methanol / 25 mM KH2PO4 pH 3.5 gradient. How it is done: Adsorption data were then obtained by HPLC. analysis on the test and control samples. Specifically, a 200 µl sample volume of PC was removed from each tube following the incubation period (special care being taken to ensure that no adsorbent particles were removed with the test samples). […] The addition of methanol lyses platelets and precipitates plasma proteins so that psoralen contained within the platelets is not excluded by the assay.
Since each of the psoralens were analyzed using the same type of HPLC assay, one can use the psoralens' relative retention times to rank them according to increasing hydrophobicity. […] Strong interactions with cells or plasma proteins could compete with adsorption, thereby interfering with resin binding.

Series [2] concerns Salmonella typhimurium tester strains TA97a, TA98, TA100, TA102, TA1537 and TA1538. As to conditions: for base-substitution mutagenicity (Ames, summary): TA100, TA102. The source says: The second property that is important in testing a compound for use in methods described herein is mutagenicity. The most widely used mutagen/carcinogen screening assay is the Ames test. This assay is described by D.M. Maron and B.N. Ames in Mutation Research 113:173 ( 1983) and a specific screen is described in detail in Example 17, below. The Ames test utilizes several unique strains of Salmonella typhimurium that are histidine- dependent for growth and that lack the usual DNA repair enzymes. The frequency of normal mutations that render the bacteria independent of histidine (i.e., the frequency of spontaneous revertants) is low. The test allows one to evaluate the impact of a compound on this revenant frequency.
Because some substances are not mutagenic by themselves, but are converted to a mutagen by metabolic action, the compound to be tested is mixed with the bacteria on agar plates along with the liver extract. The liver extract serves to mimic metabolic action in an animal.
The mixtures are allowed to incubate. Growth of bacteria (if any) is checked by counting colonies.
In this example the compounds described herein are tested for their dark mutagenicity using an Ames assay. The procedures used for the Salmonella mutagenicity test as described in detail by Maron and Ames were followed exactly. Maron, D.M. and B.N. Ames, Mutation Research 113: 173 ( 1983). A brief description for each procedure is given here. The tester strains TA97a, TA98, TA 100, TA102, TA1537 and TA1538 were obtained from Dr. Ames. TA97a, TA98, TA1537 and TA1538 are frameshift tester strains. TA100 and TA102 are base-substitution tester strains. Upon receipt each strain was cultured under a variety of conditions to confirm the genotypes specific to the strains.
The first tests done with the strains were to determine the range of spontaneous reversion for each of the strains. With each mutagenicity experiment the spontaneous reversion of the tester strains to histidine independence was measured and expressed as the number of spontaneous revertants per plate. This served as the background controls.
For all experiments, the pre-incubation procedure was used. In this procedure one vial of each tester strain was thawed and 20 µL of this culture was added to 6 mL of Oxoid Nutrient Broth #2. This solution was allowed to shake for 10 hours at 37°C. In the pre-incubation procedure, 0.1 mL of this overnight culture was added to each of the required number of sterile test tubes. To half of the tubes 0.5 mL of a 10% S-9 solution containing Aroclor 1254 induced rat liver extract (Molecular Toxicology Inc., Annapolis, MD), and MgCl2, KCl, glucose-6-phosphate, NADP, and sodium phosphate buffer (Sigma, St. Louis, Missouri) were added. To the other half of the tubes 0.5 mL of 0.2M sodium phospate buffer, pH 7.4, was used in place of the S-9 mixture (the - S9 samples). Finally 0.1 mL of the test solution containing either 0, 0.1, 0.5, 1, 5, 10, 50, 100, 250, or 500 µg/mL of the test compound was added. The 0.7 mL mixture was vonexed and then pre-incubated while shaking for 20 minutes at 37°C. After shaking, 2 mL of molten top agar supplemented with histidine and biotin were added to the 0.7 mL mixture and immediately poured onto a minimal glucose agar plate (volume of base agar was 20 mL). The top agar was allowed 30 minutes to solidify and then the plates were inverted and incubated for 44 hours at 37°C. After incubation the number of revertant colonies on each plate were counted.
Maron and Ames (1983) describe the conflicting views with regard to the statistical treatment of data generated from the test.

Another series deals with Pseudomonas. As to the kind of experiment: Bacterial inactivation by compound plus UVA, colony forming units. In kind it is cell-based. As to conditions: 16 µM; 5 J/cm^2 irradiation; starting titer 6.5 logs. How it is done: In this example bacterial inactivation by the photoreactive nucleic acid binding compounds described herein was measured as a function of the ability of the bacteria to subsequently replicate. A gram negative bacteria was chosen as representative of the more difficult bacterial strains to inactivate.
The bacteria a strain of Pseudomonas, was inoculated into LB with a sterile loop and grown overnight in a shaker at 37°C. Based on the approximation that one OD at 610 nm is equivalent to 5 x 10^8 colony forming units (cfu)/mL, a 1:10 dilution of the culture was measured on a spectrophotometer. (manufactured by Shimatsu). The bacterial culture was added to a solution of 15% fetal bovine serum in DMEM to a final bacteria concentration of approximately 10^6/mL. An aliquot (0.8 mL) was transferred to a 1.5 mL snap-top polyethylene tube. An aliquot (0.004-0.040 mL) of the test compound stock solution prepared in water, ethanol or dimethylsulfoxide at 0.80-8.0 mM was added to the tube. Compounds were tested at a concentration of 16 µM. The tubes were placed in a light device as described in EXAMPLE I and irradiated with 1.3 J/cm^2, 1.2 J/cm^2, and finally 2.5 J/cm^2, for a total of 5 J/cm^2. 150 µL were removed for testing after each pulse period. Sterile 13 mL dilution tubes were prepared; each test compound required one tube with 0.4 mL of LB broth and four tubes containing 0.5 mL of LB broth. To make the dilutions, a 0.050 mL aliquot of the irradiated solution of phage and test compound was added to the first dilution tube of […] of media then 0.050 mL of this solution was added to the second tube of 0.5 mL medium (1:10). The second solution was then diluted serially (1:10) into the remaining tubes. 100 µL of the original sample and each dilution are plated separately onto LB agar plates and incubated at 37 °C overnight. The colony forming units were then counted the following morning and the titer of the phage remaining after phototreatment was calculated based on the dilution factors.
The following controls were run: the "bacteria only" in which bacteria was not treated with test compound and not irradiated (listed as "starting titer" in the tables below); the "UV only" in which the bacteria was irradiated in the absence of test compound. Dark controls were not performed here for reasons set forth in Example 12 above.

Setting [3] is: positive control, Dose 30 mg/kg administered only once, on day three, one value per experiment, 30 mg/kg.
Where [4] appears, read: two-fold or greater increase in revertants above background and dose dependent response.

This is an account of results in patent EP0840781B1, “METHODS AND DEVICES FOR THE REMOVAL OF PSORALENS FROM BLOOD PRODUCTS” (Cerus Corporation, priority 1995, dated 1996).

The structures appear in SMILES notation. Several values for one entry are separate records, joined by “and”; a condition that tells them apart may be missing. Equal entries are not always repeated. Where two headings read alike, the source gives them in different places.

Protocol for HIV-1: Pathogen inactivation efficiency of several compounds described herein was evaluated by examining the ability of the compounds to inactivate cell-free virus (HIV). Inactivation of cell-free HIV was performed as follows.
As in the R17 assay, small aliquots of the compounds listed in TABLES 10 and 11, below, at the concentrations listed in the table, were added to stock HIV-1 to a total of 0.5 mL. The stock HIV (10^5 - 10^7 plaque forming units/mL) was in DMEM/15% FBS. […] Controls included HIV-I stock only, HIV-1 plus UVA only, and HIV-I plus the highest concentration of each psoralen tested, with no UVA. Post irradiation. all samples were store frozen at -70° C until assayed for infectivity by a microtiter plaque assay. Aliquots for measurement of residual HIV infectivity in the samples treated with a compound of the present invention were withdrawn and cultured.
Residual HIV infectivity was assayed using an MT-2 infectivity assay. […] The assay medium was 85% DMEM (with a high glucose concentration) containing 100 µg of streptomycin, 100 U of penicillin, 50 µg of gentamicin, and 1 µg of amphotericin B per mL, 15% FBS and 2 µg of Polybrene (Sigma Chemical Co., St. Louis, Mo.) per mL. Test and control samples from the inactivation procedure were diluted in 50% assay medium and 50% normal human pooled plasma. The samples were serially diluted directly in 96-well plates (Coming Glass Works, Coming, N.Y.). The plates were mixed on an oscillatory shaker for 30 seconds and incubated at 37°C in a 5% CO2 atmosphere for 1 to 18 hours. […] After an additional 1 hour of incubation at 37°C in 5% CO2, 0.075 mL of assay medium containing 1.6% SeaPlaque agarose (FMC Bioproducts, Rockland, Maine) and prewarmed to 38.5°C was added to each well. The plates were kept at 37°C for a few minutes until several plates had accumulated and then centrifuged in plate carriers at 600 x g for 20 minutes in a centrifuge precooled to 10°C. In the centrifuge, cell monolayers formed prior to gelling of the agarose layer. The plates were incubated for 5 days at 37°C in 5% CO2 and stained by the addition of 0.05 mL of 50 µg/mL propidium iodide (Sigma Chemical Co.) in phosphate-buffered saline (pH 7.4) to each well. After 24 to 48 hours, the red fluorescence-stained microplaques were visualized by placing the plates on an 8,000 µW/cm^2 304 nm UV light box (Fotodyne, Inc., New Berlin, Wis.). The plaques were counted at a magnification of x20 to x25 through a stereomicroscope.

Consider `O=P1(N(CCCl)CCCl)NCCCO1` (stereo not shown) [CycloPP, cyclophosphamide, reference compound], for which, in the series with Male Balb/c mice (setting [3]), the “PCE + MN (%)” value was 1.98 ± 0.40% and 1.76 ± 0.64%; the “PCE/RBC (%)” value was 1.39 ± 0.41% and 1.65 ± 0.64% and 0.99 ±0.33%.

Consider `Cc1cc(=O)oc2c(C)c3oc(CNCCCCN)c(C)c3cc12` [Compound 17, 5'-(6-amino-2-aza)hexyl-4,4',8-trimethylpsoralen], for which the “efficiency at inactivating R17 compared with AMT” value in the series with R17 (constant concentration, varying doses of UV light 1.0-3.0 J/cm^2 (FIGS. 11-17)) is given as “more efficient at inactivating R17 than was AMT”. Further, the “bone marrow toxicity or micronucleus formation” value in the series on Male Balb/c mice (experiment repeated using increased dose levels) was “the acutely lethal dose was reached before there were any signs of bone marrow toxicity or micronucleus formation”. Besides, the “HIV Log Kill” value in the series on HIV-1 (16 µM, HIV Starting Titer Approximately 5.4 Logs (Table 11)) was determined as 1.2; in the series on HIV-1 (32 µM, HIV Starting Titer Approximately 5.4 Logs (Table 11)) it was 2.9; with HIV-1 (64 µM, HIV Starting Titer Approximately 5.4 Logs (Table 11)), 3.4.

As to `CCN(CC)CCCOc1c2occc2c(Br)c2ccc(=O)oc12` [Psoralen C, 5-bromo-8-(diethylaminopropyloxy)-psoralen], the “HPLC retention time (rough estimate of hydrophobicity)” value (“HPLC retention time” below) in series [1] was 12.0 min.

For `COc1c2occc2c(Br)c2ccc(=O)oc12` [Psoralen B, 5-bromo-8-methoxypsoralen], the “HPLC retention time” value in series [1] is given as 20.0 min.

As to `Cc1oc2c(C)c3oc(=O)cc(C)c3cc2c1CNCCN` [Compound 1, 4'-(4-amino-2-aza)butyl-4,5',8-trimethylpsoralen], the “Logs Killed” value in the series on R17 (Experiment 2, compound only (3.2 µM), no uva) came to 0.1. For the same compound, in series [2] (5 µg/plate), the “revertant colonies, TA100 +S9” value is -24; the “revertant colonies, TA100 -S9” value is 292; the “revertant colonies, TA1538 +S9” value is 21; the “revertant colonies, TA1538 -S9” value is 10. Further, in series [2] (10 µg/plate), the “revertant colonies, TA100 +S9” value is -22; the “revertant colonies, TA100 -S9” value was 337; the “revertant colonies, TA1538 +S9” value is given as 22; the “revertant colonies, TA1538 -S9” value came to 12. Further, in series [2] (setting [4]), the “frameshift mutagenicity (Ames, summary)” value was “weak frameshift mutagen in TA1538 at 5 µg/plate in the presence of S9” and the “base-substitution mutagenicity (Ames, summary)” value is “displayed mutation in the TA100 strain, but only in the absence of S9”. Further, the “HIV Log Kill” value in the series on HIV-1 (64 µM, HIV Starting Titer Approximately 5 Logs (Table 10)) came out at 2.1.

For `CC[N+](CC)(CC)Cc1c(C)oc2c(C)c3oc(=O)cc(C)c3cc12` [Psoralen A, 4'-(triethylamino) methyl-4,5',8-trimethylpsoralen], the “HPLC retention time” value in series [1] is reported as 7.8 min.

Turning to `COc1c2occc2cc2ccc(=O)oc12` [Compound 8-MOP, 8-Methoxypsoralen, reference compound], in the series with R17 (32 µM, 1 Minute Irradiation, Starting Titer Approx. 7.5 Logs (Table 6)), the “R17 log kill (32 µM)” value stood at 0. In addition, the “log kill of bacteria (Pseudomonas)” value with Pseudomonas was 1.9 logs. For the same compound, the “base-substitution mutagenicity (Ames, summary)” value in series [2] (setting [4]) is reported as “weak base-substitution mutagen in TA102 at 500µg/plate”.
